According to paper PMC7315563, “Bioactive fluorenes. Part III: 2,7-dichloro-9H-fluorene-based thiazolidinone and azetidinone analogues as anticancer and antimicrobial against multidrug resistant strains agents” (BMC Chemistry, 2020):
≈ marks a conversion by molar mass, not a printed value.

Experiments:
[1] = test system: A549 human lung cancer cells; test: cell viability assay (MTT); type: cell-based; settings: 24 h; for viability at 1 µg/mL: read-out: Validity (%) for sample concentrations (µg/mL) 1; for viability at 10 µg/mL: read-out: Validity (%) for sample concentrations (µg/mL) 10; for viability at 31.25 µg/mL: read-out: Validity (%) for sample concentrations (µg/mL) 31.25; for viability at 62.5 µg/mL: 62.50 µg/mL, read-out: Validity (%) for sample concentrations (µg/mL) 62.50; for viability at 125 µg/mL: read-out: Validity (%) for sample concentrations (µg/mL) 125; for viability at 250 µg/mL: read-out: Validity (%) for sample concentrations (µg/mL) 250; for viability at 500 µg/mL: read-out: Validity (%) for sample concentrations (µg/mL) 500; for viability at 1000 µg/mL: read-out: Validity (%) for sample concentrations (µg/mL) 1000
[2] = test system: Staphylococcus aureus (S. aureus), multidrug resistant clinical isolate; test: agar well diffusion assay; type: cell-based; settings: Staphylococcus aureus; S. aureus; 500 µg/mL of tested compound; 24 h
Method in brief: (§1)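 Multidrug-resistant clinical isolates swabbed on Mueller–Hinton agar at about 1–5 × 10^5 CFU/mL; 0.5 cm wells received 50 μL compound at 500 μg/mL in 1% DMSO. Incubation 24 h, 37 °C for bacteria and C. albicans, 25 °C for Aspergillus; inhibition zone diameter measured in mm.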

S. aureus = test: MIC by broth microdilution method (resazurin end point); type: cell-based; settings: Staphylococcus aureus; S. aureus; 24 h at 37 °C; read-out: MIC
Procedure: (§2) Determination of Minimum inhibitory concentrations (MIC) of flourene derivatives was done using broth microdilution method. The procedure involved preparation of twofold dilutions of the fluorene derivatives ranging from (500–7.8 μg/mL) in sterile Mueller–Hinton broth inside the wells of 96-well microplate (Sarstedt, Germany). The inoculums of test strains prepared from fresh overnight cultures were adjusted to 0.5 McFarland standards, which equals to 1–2 × 10^8 CFU/mL for bacteria, the procedure was done according to CLSI 2012 [42]. […] For this assay the positive control agents were vancomycin (range: 0.7–50 μg/mL), gentamicin (range: 0.15–10 μg/mL) and the negative control was 1% DMSO.
(§3) For proper determination of the MIC end point resazurin dye has been used. A stock solution of resazurin sodium salt powder (Titan Biotech) was prepared at 0.02% (wt/vol) in distilled water, sterilized by filtration through a […] filter into a sterile light protected container then stored protected from light at 4 °C for up to 1 week, or at − […] for long term use, then 10–15% resazurin solution of the total volume in wells was added to each well and incubation for 1–4 h at 37 °C was done. A change in color from blue to pink indicates the growth of bacteria, and MIC was defined as the lowest concentration of the drug that prevented this change in color.

[3] = test system: WI-38 human normal fibroblast cells; test: cell viability assay (MTT); type: cell-based; settings: 24 h; for viability at 31.25 µg/mL: read-out: Validity (%) for sample concentrations (µg/mL) 31.25; for viability at 62.5 µg/mL: 62.50 µg/mL, read-out: Validity (%) for sample concentrations (µg/mL) 62.50; for viability at 125 µg/mL: read-out: Validity (%) for sample concentrations (µg/mL) 125; for viability at 250 µg/mL: read-out: Validity (%) for sample concentrations (µg/mL) 250; for viability at 500 µg/mL: read-out: Validity (%) for sample concentrations (µg/mL) 500
Method in brief: (§4)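 Cells were seeded at 5000/well in RPMI-1640 with 10% FBS. The next day they were exposed to fluorene derivatives at 0–500 µg/mL for 24 h. Viability was measured by MTT absorbance at 570 nm.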

[4] = test system: MDA-MB-231 human breast cancer cells; test: cell viability assay (MTT); type: cell-based; settings: 24 h; for viability at 1 µg/mL: read-out: Validity (%) for sample concentrations (µg/mL) 1; for viability at 10 µg/mL: read-out: Validity (%) for sample concentrations (µg/mL) 10; for viability at 31.25 µg/mL: read-out: Validity (%) for sample concentrations (µg/mL) 31.25; for viability at 62.5 µg/mL: read-out: Validity (%) for sample concentrations (µg/mL) 62.5; for viability at 125 µg/mL: read-out: Validity (%) for sample concentrations (µg/mL) 125; for viability at 250 µg/mL: read-out: Validity (%) for sample concentrations (µg/mL) 250; for viability at 500 µg/mL: read-out: Validity (%) for sample concentrations (µg/mL) 500
Method in brief: as §4

[5] = test system: Pseudomonas aeruginosa (P. aeruginosa), multidrug resistant clinical isolate; test: agar well diffusion assay; type: cell-based; settings: 24 h, 500 µg/mL of tested compound
Method in brief: as §1

[6] = test system: Escherichia coli (E. coli), multidrug resistant clinical isolate; test: agar well diffusion assay; type: cell-based; settings: 24 h, 500 µg/mL of tested compound
Method in brief: as §1

E. coli = test: MIC by broth microdilution method (resazurin end point); type: cell-based; settings: Escherichia coli, 24 h at 37 °C
Procedure: as §2, §3

P. aeruginosa = test: as above; type: cell-based; settings: Pseudomonas aeruginosa, 24 h at 37 °C
Procedure: as §2, §3

[7] = test system: Acinetobacter baumannii (A. baumannii), multidrug resistant clinical isolate; test: agar well diffusion assay; type: cell-based; settings: 500 µg/mL of tested compound, 24 h
Method in brief: as §1

[8] = test system: Klebsiella pneumoniae (K. pneumoniae), multidrug resistant clinical isolate; test: agar well diffusion assay; type: cell-based; settings: 24 h, 500 µg/mL of tested compound
Method in brief: as §1

[9] = test system: methicillin-resistant Staphylococcus aureus (MRSA); test: agar well diffusion assay; type: cell-based; settings: Staphylococcus aureus, 500 µg/mL of tested compound, 24 h
Method in brief: as §1

Row | melting point [°C] | IC50 [1] [µg/mL] | SMILES | viability at 1 µg/mL [1] [%] | viability at 10 µg/mL [1] [%] | viability at 31.25 µg/mL [1] [%] | viability at 62.5 µg/mL [1] [%] | viability at 125 µg/mL [1] [%] | viability at 250 µg/mL [1] [%] | viability at 500 µg/mL [1] [%] | viability at 1000 µg/mL [1] [%] | zone of inhibition at 500 µg/mL [2] [mm] | viability at 31.25 µg/mL [3] [%] | viability at 62.5 µg/mL [3] [%] | viability at 125 µg/mL [3] [%] | viability at 250 µg/mL [3] [%] | viability at 500 µg/mL [3] [%] | IC50 [3] [µg/mL] | viability at 1 µg/mL [4] [%] | viability at 10 µg/mL [4] [%] | viability at 31.25 µg/mL [4] [%] | other results
1 | 110 to 111 | 276 (≈ 510 µM) | CN(C)c1ccc(C2C(Cl)C(=O)N2c2nc(-c3cc(Cl)cc4c3-c3ccc(Cl)cc3C4)cs2)cc1 (centres unmarked) [6e, 3-Chloro-1-(4-(2,7-dichloro-9H-fluoren-4-yl)thiazol-2-yl)-4-(4-(dimethylamino)phenyl)-azetidin-2-one] | 95.4 | 90.3 | 87.5 | 81.7 | 71.1 | 50.7 | 33.2 | 28.8 | 12 | 68.8 | 52.5 | 45.6 | 38.6 | 26.8 | 65.4 (≈ 121 µM) | 98.2 | 90.2 | 89.9 | MIC (S. aureus): 62.5 µg/mL (≈ 116 µM); viability at 62.5 µg/mL [4]: 85.2%; viability at 125 µg/mL [4]: 69.2%; viability at 250 µg/mL [4]: 41.9%; viability at 500 µg/mL [4]: 39.4%; IC50 [4]: 215 µg/mL (≈ 397 µM)
2 | 114 to 116 | 230 (≈ 424 µM) | O=C1C(Cl)C(c2ccc([N+](=O)[O-])cc2)N1c1nc(-c2cc(Cl)cc3c2-c2ccc(Cl)cc2C3)cs1 (centres unmarked) [6f, 3-Chloro-1-(4-(2,7-dichloro-9H-fluoren-4-yl)thiazol-2-yl)-4-(4-nitrophenyl)azetidin-2-one] | 91.3 | 89.8 | 86.2 | 83.2 | 67.3 | 46.6 | 38.6 | 25.4 | 10 | 49 | 44.8 | 35.6 | 32.3 | 30.4 | 29 (≈ 53.4 µM) | 91.8 | 89.6 | 83 | zone of inhibition at 500 µg/mL [7]: 5 mm; viability at 62.5 µg/mL [4]: 72.4%; viability at 125 µg/mL [4]: 59.7%; viability at 250 µg/mL [4]: 37.2%; viability at 500 µg/mL [4]: 28.9%; IC50 [4]: 188 µg/mL (≈ 346 µM)
3 | 249 to 250 | 830 (≈ 1660 µM) | O=C1C(Cl)C(c2ccncc2)N1c1nc(-c2cc(Cl)cc3c2-c2ccc(Cl)cc2C3)cs1 (centres unmarked) [6m, 3-Chloro-1-(4-(2,7-dichloro-9H-fluoren-4-yl)thiazol-2-yl)-4-(pyridin-4-yl)azetidin-2-one] | 91.5 | 81.8 | 67.6 | 65.9 | 62.7 | 58.7 | 54.1 | 49.8 | 4 | 78.5 | 72.8 | 68.5 | 63 | 55.7 | > 500 | 93.2 | 89.9 | 77.6 | zone of inhibition at 500 µg/mL [8]: 3 mm; zone of inhibition at 500 µg/mL [9]: 6 mm; zone of inhibition at 500 µg/mL [6]: 27 mm; MIC (E. coli): 15.6 µg/mL (≈ 31.3 µM); viability at 62.5 µg/mL [4]: 73.2%; viability at 125 µg/mL [4]: 67.1%; viability at 250 µg/mL [4]: 63.4%; viability at 500 µg/mL [4]: 59.5%; IC50 [4]: > 500 µg/mL

Second part, the compound before the results:

Row | SMILES | melting point [°C] | IC50 [1] [µg/mL] | viability at 1 µg/mL [1] [%] | viability at 10 µg/mL [1] [%] | viability at 31.25 µg/mL [1] [%] | viability at 62.5 µg/mL [1] [%] | viability at 125 µg/mL [1] [%] | viability at 250 µg/mL [1] [%] | viability at 500 µg/mL [1] [%] | viability at 1000 µg/mL [1] [%] | zone of inhibition at 500 µg/mL [2] [mm] | viability at 31.25 µg/mL [3] [%] | viability at 62.5 µg/mL [3] [%] | viability at 125 µg/mL [3] [%] | viability at 250 µg/mL [3] [%] | viability at 500 µg/mL [3] [%] | IC50 [3] [µg/mL] | viability at 1 µg/mL [4] [%] | viability at 10 µg/mL [4] [%] | viability at 31.25 µg/mL [4] [%] | other results
4 | COc1cc(C2SCC(=O)N2c2nc(-c3cc(Cl)cc4c3-c3ccc(Cl)cc3C4)cs2)ccc1O (centres unmarked) [5h, 3-(4-(2,7-Dichloro-9H-fluoren-4-yl)thiazol-2-yl)-2-(4-hydroxy-3-methoxyphenyl)thiazolidin-4-one] | 85 to 87 | 1610 (≈ 2970 µM) | 92.9 | 91.4 | 90.3 | 88.7 | 85.7 | 82.7 | 77.2 | 68 | 11 | 95 | 81.7 | 78.7 | 72.8 | 66.2 | > 500 | 90.9 | 82.8 | 79.3 | MIC (S. aureus): 62.5 µg/mL (≈ 115 µM); viability at 62.5 µg/mL [4]: 76.8%; viability at 125 µg/mL [4]: 71.7%; viability at 250 µg/mL [4]: 61.7%; viability at 500 µg/mL [4]: 56.7%; IC50 [4]: > 500 µg/mL
5 | O=C1CSC(c2ccco2)N1c1nc(-c2cc(Cl)cc3c2-c2ccc(Cl)cc2C3)cs1 (centres unmarked) [5j, 3-(4-(2,7-Dichloro-9H-fluoren-4-yl)thiazol-2-yl)-2-(furan-2-yl)thiazolidin-4-one] | 139 to 141 | 1050 (≈ 2150 µM) | 92.9 | 84.6 | 83.6 | 82.5 | 81.6 | 77.5 | 71.4 | 52.5 | 6 | 84.2 | 66.1 | 61.5 | 39.1 | 38.5 | 196 (≈ 404 µM) | 94.4 | 74.8 | 67 | zone of inhibition at 500 µg/mL [5]: 8 mm; zone of inhibition at 500 µg/mL [6]: 10 mm; MIC (E. coli): 62.5 µg/mL (≈ 129 µM); MIC (P. aeruginosa): 62.5 µg/mL (≈ 129 µM); viability at 62.5 µg/mL [4]: 61.4%; viability at 125 µg/mL [4]: 60.2%; viability at 250 µg/mL [4]: 57.2%; viability at 500 µg/mL [4]: 49.3%; IC50 [4]: 435 µg/mL (≈ 896 µM)
6 | O=C1C(Cl)C(c2ccco2)N1c1nc(-c2cc(Cl)cc3c2-c2ccc(Cl)cc2C3)cs1 (centres unmarked) [6j, 3-Chloro-1-(4-(2,7-dichloro-9H-fluoren-4-yl)thiazol-2-yl)-4-(furan-2-yl)azetidin-2-one] | 95 to 98 | 175 (≈ 359 µM) | 95.6 | 87.8 | 76.6 | 68.2 | 54 | 31.3 | 29.2 | 28.3 | 9 | 87.3 | 81.4 | 66.3 | 60.9 | 37.2 | 356 (≈ 730 µM) | 96.3 | 92.9 | 75.6 | zone of inhibition at 500 µg/mL [7]: 6 mm; zone of inhibition at 500 µg/mL [6]: 20 mm; MIC (E. coli): 31.2 µg/mL (≈ 64.1 µM); viability at 62.5 µg/mL [4]: 73.1%; viability at 125 µg/mL [4]: 69%; viability at 250 µg/mL [4]: 53.2%; viability at 500 µg/mL [4]: 50.6%; IC50 [4]: 508 µg/mL (≈ 1040 µM)
